From US6291540A, “Non-toxic initiators and their use for preparing stable and non-toxic polymers” (Rhodia Chimie, priority 1997, dated 2001)

How the values were obtained:
LLNA sensitization test = format: in vivo; settings: cytotoxicity can also be detected
Procedure: (§1) The tests carried out to measure the toxicity of the initiators are the Ames test and the LLNA sensitization test. The Ames test makes it possible to measure the mutagenic power of the initiator and the LLNA sensitization test makes it possible to detect the sensitizing power of the initiator. The cytotoxicity of the initiators can also be detected in this latter test (see examples).
The following toxicology tests were carried out:
LLNA sensitization test: this test makes it possible to detect the sensitizing power of the product. The cytotoxicity of the products can also be detected in the course of the test.
Table I below indicates the results obtained for the various photoinitiators prepared above.

[1] = Ames test (mutagenic power); format: cell-based
Procedure: as §1, with “examples). The following toxicology tests were carried out: Ames test: this Ames test makes it possible to measure the mutagenic power of the product Table I below indicates the results obtained for the various photoinitiators prepared above.” for “examples).”

[2] = Reactivity under UV irradiation of the photoinitiator; settings: compared with the other toxic photo-initiators
Description: The crosslinkable compositions comprise the non-toxic initiator prepared in Example 4.

Row | SMILES | LLNA sensit. (LLNA sensitization test) | Ames [1] | reactivity under UV irradiation [2]
1 | Cc1ccc([I+]c2ccc(C)cc2)cc1 [Example 1, ditolyliodonium chloride] | cytotoxic | cytotoxic | 
2 | Cc1ccc([I+]c2ccc(C)cc2)cc1 [Example 2] | positive | positive | 
3 | Cc1ccc([I+]c2ccc(C(C)C)cc2)cc1 [Example 3, cumyltolyliodonium chloride] | negative | negative | 
4 | Cc1ccc([I+]c2ccc(C(C)C)cc2)cc1 [Example 4] |  |  | comparable
5 | CCOc1ccc([I+]c2ccc(C)cc2)cc1 [Example 8] | positive | positive and cytotoxic | 
6 | Cc1ccc([I+]c2ccc(Oc3ccccc3)cc2)cc1 [Example 9] | negative | cytotoxic | 
7 | CC(C)c1ccc([I+]c2ccc(C(C)C)cc2)cc1 [Example 10] | positive | negative | 
8 | COc1ccc([I+]c2ccc(OC)cc2)cc1 [Example 11] | cytotoxic | cytotoxic | 
